Measured values published in US7132455B2, “Phthalamide derivatives” (Bayer Cropscience AG, priority 2002, dated 2006).

Assays:
[1] = tested on: larva of Spodoptera litura; experiment: Test against larva of Spodoptera litura (leaf dip, sweet potato leaves); assay type: in vivo; conditions: 20 ppm concentration of effective component; third instar larvae on treated sweet potato leaves; after 7 days; 25° C.
Method: Test against larva of Spodoptera litura
In order to make an appropriate formulation of an active compound 1 part by weight of the active compound was mixed with the above-mentioned amount of solvent containing the above-mentioned amount of emulsifier and the mixture was diluted with water to a prescribed concentration.
Leaves of sweet potato were soaked in the test agent diluted to a prescribed concentration with water, dried in the air and put in a dish of 9 cm diameter. 10 larvae of Spodoptera litura at the third instar were placed on the leaves and kept in a room at constant temperature of 25° C. After 2 and 4 days further leaves of sweet potato were added and after 7 days the number of dead larvae was counted and the rate of death was calculated.
In this test the results of 2 dishes at 1 section were averaged.

[2] = tested on: larva of Cnaphalocrocis medinalis Guenee; experiment: Test against larva of Cnaphalocrocis medinalis Guenee (systemic, root uptake by paddy rice); assay type: in vivo; conditions: 20 ppm concentration of effective component; rice root parts in diluted solution, foliage fed to second instar larvae; after 7 days; 25° C.
Excerpt: Test Against Larva of Cnaphalocrocis medinalis Guenee Root parts of paddy rice (variety: […]) cultivated to 4 to 5 leaf stage were put in a brown bottle filled with the diluted aqueous solution of the prescribed concentration of the active compound prepared in the same manner as in the above-mentioned Biological Test Example 1. Three days after the treatment with the agent, 1⁄3 amount of rice plant was collected and their foliage part was cut in 4 to 5 cm length, which were put in a dish with 9 cm diameter with a sheet of filter paper wetted with 2 mL of water. Five larvae of Cnaphalocrocis medinalis Guenee at the second instar were put in the dish which was placed in a room at constant temperature of 25° C. After 2 and 4 days, each rest (each 1⁄3 amount) of foliage parts of rice plant were cut in the same manner and added to the dish. After 7 days the number of dead larvae was counted and the rate of death was calculated. In this test the results of 2 dishes at 1 section were averaged.

Row | SMILES | rate of death [1] [%] | rate of death [2] [%]
1 | CSCC(C)(C)NC(=O)c1c(OS(C)(=O)=O)cccc1C(=O)Nc1ccc(C(F)(C(F)(F)F)C(F)(F)F)cc1C [compound 10, N^2-[1,1-dimethyl-2-(methylthio)ethyl]-N^1-(4-heptafluoroisopropyl-2-methylphenyl)-3-methanesulfonyloxyphthalamide] | 100 | 100
2 | CSCC(C)NC(=O)c1c(OS(C)(=O)=O)cccc1C(=O)Nc1ccc(C(F)(C(F)(F)F)C(F)(F)F)cc1 (centres unmarked) [compound 5, N^1-(4-heptafluoroisopropylphenyl)-N^2-[1-methyl-2-(methylthio)ethyl]-3-methanesulfonyloxyphthalamide] | 100 | 100
3 | CSCC(C)NC(=O)c1c(OS(=O)(=O)C(F)(F)F)cccc1C(=O)Nc1ccc(C(F)(C(F)(F)F)C(F)(F)F)cc1C (centres unmarked) [compound 21, N^1-(4-heptafluoroisopropyl-2-methylphenyl)-N^2-[1-methyl-2-(methylthio)ethyl]-3-trifluoromethanesulfonyloxyphthalamide] | 100 | –
4 | CCS(=O)(=O)Oc1cccc(C(=O)Nc2ccc(C(F)(C(F)(F)F)C(F)(F)F)cc2C)c1C(=O)NC(C)(C)CSC [compound 17, N^2-[1,1-dimethyl-2-(methylthio)ethyl]-N^1-(4-heptafluoroisopropyl-2-methylphenyl)-3-ethanesulfonyloxyphthalamide] | 100 | –
5 | CCS(=O)(=O)Oc1cccc(C(=O)Nc2ccc(C(F)(C(F)(F)F)C(F)(F)F)cc2C)c1C(=O)NC(C)CSC (centres unmarked) [compound 14, N^1-(4-heptafluoroisopropyl-2-methylphenyl)-N^2-[1-methyl-2-(methylthio)ethyl]-3-ethanesulfonyloxyphthalamide] | 100 | –
6 | Cc1cc(C(F)(C(F)(F)F)C(F)(F)F)ccc1NC(=O)c1cccc(OS(C)(=O)=O)c1C(=O)NC(C)(C)C[S+](C)[O-] (centres unmarked) [compound 11, N^2-[1,1-dimethyl-2-(methylsulfinyl)ethyl]-N^1-(4-heptafluoroisopropyl-2-methylphenyl)-3-methanesulfonyloxyphthalamide] | 100 | 100
7 | Cc1cc(C(F)(C(F)(F)F)C(F)(F)F)ccc1NC(=O)c1cccc(OS(C)(=O)=O)c1C(=O)NC(C)C [compound no. 1, N^1(4-heptafluoroisopropyl-2-methylphenyl)-N-2-isopropyl-3-methanesulfonyloxyphthalamide] | 100 | 100
8 | CSCC(C)NC(=O)c1c(OS(C)(=O)=O)cccc1C(=O)Nc1ccc(OC(F)(F)F)cc1C (centres unmarked) [compound 6, N^2-[1-methyl-2-(methylthio)ethyl]-N^1-(4-trifluoromethoxy-2-methylphenyl)-3-methanesulfonyloxyphthalamide] | 100 | –
9 | Cc1cc(C(F)(C(F)(F)F)C(F)(F)F)ccc1NC(=O)c1cccc(OS(C)(=O)=O)c1C(=O)NC(C)(C)CS(C)(=O)=O [compound 12, N^2-[1,1-dimethyl-2-(methylsulfonyl)ethyl]-N^1-(4-heptafluoroisopropyl-2-methylphenyl)-3-methanesulfonyloxyphthalamide] | 100 | 100
10 | CSCC(C)(C)NC(=O)c1c(OS(C)(=O)=O)cccc1C(=O)Nc1ccc(Cl)c(Cl)c1Cl [compound 24, N^2-[1,1-dimethyl-2-(methylthio)ethyl]-N^1-(2,3,4-trichlorophenyl)-3-methanesulfonyloxyphthalamide] | 100 | –
11 | CSCC(C)NC(=O)c1c(OS(C)(=O)=O)cccc1C(=O)Nc1ccc(C(F)(C(F)(F)F)C(F)(F)F)cc1C (centres unmarked) [compound 7, N^1-(4-heptafluoroisopropyl-2-methylphenyl)-N^2-[1-methyl-2-(methylthio)-ethyl]-3-methanesulfonyloxyphthalamide] | 100 | 100
